In brackets after ≈: the same amount, converted by molar mass.
Experiments:
[1] = tested on: Mycobacterium tuberculosis; assay: Antitubercular activity against Mycobacterium tuberculosis H37Rv incubated for 6 days by resazurin dye based fluorescence assay; assay type: functional; conditions: 144 h
[2] = Protection Index, ratio of CC50 for human HepG2 cells to MIC for Mycobacterium tuberculosis H37Rv; assay type: toxicity; conditions: read-out: PI
[3] = Cytotoxicity against human HepG2 cells incubated for 48 hrs by CellTiter Glo assay; assay type: cell-based
Albumin = Albumin (Homo sapiens, UniProt P02768); assay: Binding affinity to HSA by HPLC analysis; assay type: ADME; conditions: isolated protein
[4] = Permeability of the compound in pH 7.05 phosphate buffer incubated for 3 hrs by artificial membrane permeability assay based LCMS analysis; assay type: ADME; conditions: PAMPA, read-out: permeability
[5] = Kinetic solubility of the compound in pH 7.4 phosphate buffered saline; assay type: physicochemical; conditions: read-out: Kinetic_solubility
[6] = Chromatographic lipophilicity, log D of compound in PBS ay pH 7.4 by UV-HPLC analysis; assay type: physicochemical; conditions: for chromatographic logD: PBS
[7] = target: Voltage-gated inwardly rectifying potassium channel KCNH2 (Homo sapiens, UniProt Q12809); assay: Inhibition of human ERG
Chain of Voltage-gated inwardly rectifying potassium channel KCNH2 (Q12809 whole entry): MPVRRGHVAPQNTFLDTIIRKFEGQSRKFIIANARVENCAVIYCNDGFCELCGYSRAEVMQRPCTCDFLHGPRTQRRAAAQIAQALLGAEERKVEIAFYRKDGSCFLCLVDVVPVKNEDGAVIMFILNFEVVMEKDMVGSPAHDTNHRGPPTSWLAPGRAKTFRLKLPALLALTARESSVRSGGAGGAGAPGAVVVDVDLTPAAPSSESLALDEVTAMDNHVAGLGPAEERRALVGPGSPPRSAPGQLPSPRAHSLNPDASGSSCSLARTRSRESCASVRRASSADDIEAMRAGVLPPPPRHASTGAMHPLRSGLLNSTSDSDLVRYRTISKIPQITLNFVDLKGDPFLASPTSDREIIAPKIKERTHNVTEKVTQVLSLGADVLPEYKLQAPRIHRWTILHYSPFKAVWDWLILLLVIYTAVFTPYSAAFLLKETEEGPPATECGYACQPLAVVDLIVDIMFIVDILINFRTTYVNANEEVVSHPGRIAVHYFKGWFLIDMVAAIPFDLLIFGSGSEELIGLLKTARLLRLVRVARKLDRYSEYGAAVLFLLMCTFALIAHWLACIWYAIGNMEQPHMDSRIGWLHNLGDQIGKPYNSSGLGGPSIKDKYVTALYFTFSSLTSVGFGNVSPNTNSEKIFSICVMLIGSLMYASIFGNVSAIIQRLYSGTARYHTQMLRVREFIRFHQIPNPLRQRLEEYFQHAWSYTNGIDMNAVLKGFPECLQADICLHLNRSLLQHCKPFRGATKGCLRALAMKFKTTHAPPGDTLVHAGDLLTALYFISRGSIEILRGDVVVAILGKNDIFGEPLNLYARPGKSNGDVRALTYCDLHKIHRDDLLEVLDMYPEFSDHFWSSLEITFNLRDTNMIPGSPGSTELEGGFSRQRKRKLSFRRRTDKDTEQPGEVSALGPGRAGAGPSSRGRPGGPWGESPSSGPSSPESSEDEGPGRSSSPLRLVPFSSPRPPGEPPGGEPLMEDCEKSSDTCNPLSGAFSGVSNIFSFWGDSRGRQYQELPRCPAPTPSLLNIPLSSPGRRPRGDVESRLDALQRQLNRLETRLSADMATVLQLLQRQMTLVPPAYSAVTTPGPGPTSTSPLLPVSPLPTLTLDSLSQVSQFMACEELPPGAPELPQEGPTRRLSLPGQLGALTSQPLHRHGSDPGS

Chain of Albumin (P02768 whole entry): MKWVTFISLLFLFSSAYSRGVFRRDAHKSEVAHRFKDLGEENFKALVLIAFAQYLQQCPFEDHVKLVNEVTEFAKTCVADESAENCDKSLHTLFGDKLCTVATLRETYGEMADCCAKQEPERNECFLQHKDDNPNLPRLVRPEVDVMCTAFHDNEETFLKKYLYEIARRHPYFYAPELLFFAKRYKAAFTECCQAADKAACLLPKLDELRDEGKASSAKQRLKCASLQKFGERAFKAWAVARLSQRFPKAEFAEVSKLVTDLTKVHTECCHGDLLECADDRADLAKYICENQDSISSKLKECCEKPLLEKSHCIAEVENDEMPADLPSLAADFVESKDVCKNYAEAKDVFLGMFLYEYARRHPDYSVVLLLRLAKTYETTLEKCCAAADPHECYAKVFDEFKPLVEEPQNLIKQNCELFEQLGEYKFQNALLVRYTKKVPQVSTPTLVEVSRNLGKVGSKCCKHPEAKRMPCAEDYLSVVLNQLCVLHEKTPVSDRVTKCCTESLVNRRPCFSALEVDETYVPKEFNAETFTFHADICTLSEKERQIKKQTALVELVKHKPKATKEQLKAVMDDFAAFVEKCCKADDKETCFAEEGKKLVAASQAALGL

SMILES	MIC [1]	selectivity ratio [2]	CC50 at 48 h [3]	Activity (Albumin)	Papp at 3 h [4]	solubility kinetic [5]	chromatographic logD [6]	IC50 [7]	logD ([6]; buffer)
Fc1ccc(-n2nc(CN3CCSCC3)cc2-c2ccc(C(F)(F)F)cc2)cc1	4.7 µM (≈ 1.98 µg/mL)	17	79.4 µM	–	–	–	–	–	–
CC(C)c1ccc(-c2cc(CN3CCNCC3)nn2C2CCCCC2)cc1	20 µM (≈ 7.33 µg/mL)	–	–	–	–	–	–	–	–
CC(C)c1ccc(-c2cc(CN3CCN(C)CC3)nn2C2CCCCC2)cc1	21 µM (≈ 7.99 µg/mL)	0.5	10 µM	–	–	–	–	–	–
CC(C)c1ccc(-c2cc(CN3CCC(O)CC3)nn2-c2ccc(F)cc2)cc1	10 µM (≈ 3.94 µg/mL)	2	20 µM	–	–	–	–	–	–
COC1CCN(Cc2cc(-c3ccc(C(F)(F)F)cc3)n(C(C)C)n2)CC1	2.5 µM (≈ 0.954 µg/mL)	32	79.4 µM	–	–	–	–	–	–
CC(C)c1ccc(-c2cc(CN3CCSCC3)nn2C2CCCCC2)cc1	1.3 µM (≈ 0.499 µg/mL)	31	40 µM	–	–	–	–	–	–
CC(C)c1ccc(-c2cc(CN3CCCC(O)C3)nn2C(C)C)cc1 (stereo unspecified)	1 µM (≈ 0.341 µg/mL)	50	50 µM	–	–	–	–	–	–
CC(C)c1ccc(-c2cc(CN3CCOCC3)nn2-c2ccc(F)cc2)cc1	5 µM (≈ 1.9 µg/mL)	10	50.1 µM	–	–	–	–	–	–
Fc1ccc(-n2nc(CN3CCCCC3)cc2-c2ccc(C(F)(F)F)cc2)cc1	2.5 µM (≈ 1.01 µg/mL)	16	40 µM	–	–	–	–	–	–
CC(C)c1ccc(-c2cc(CN3CCN(c4ccccn4)CC3)nn2-c2ccc(F)cc2)cc1	0.5 µM (≈ 0.228 µg/mL)	128	64 µM	98.45%	< 3 ×10⁻⁶ cm/s	6 µM (≈ 2.73 µg/mL)	8.76	25.1 µM	–
FC(F)(F)c1ccc(-c2cc(CN3CCSCC3)nn2C2CCCCC2)cc1	1.2 µM (≈ 0.491 µg/mL)	53	63.1 µM	–	–	–	–	–	–
COC1CCCN(Cc2cc(-c3ccc(C(C)C)cc3)n(-c3ccc(F)cc3)n2)C1 (stereo unspecified)	2.4 µM (≈ 0.978 µg/mL)	13	32 µM	–	–	–	–	–	–
Cc1cc(CN2CCOCC2)nn1C1CCCCC1	2.5 µM (≈ 0.658 µg/mL)	20	50 µM	–	–	–	–	–	–
CC(C)c1ccc(-c2cc(CN3CC[Si](C)(C)CC3)nn2-c2ccc(F)cc2)cc1	0.00925 µM (≈ 0.0039 µg/mL)	1360	12.6 µM	97.49%	–	41 µM (≈ 17.3 µg/mL)	8.82	2 µM	–
COC1CCCN(Cc2cc(-c3ccc(C(C)C)cc3)n(C3CCCCC3)n2)C1 (stereo unspecified)	2.5 µM (≈ 0.989 µg/mL)	8	20 µM	–	–	–	–	–	–
NNC(=O)c1ccncc1 [ISONIAZID]	1.8 µM (≈ 0.247 µg/mL)	–	–	–	–	–	–	–	–
FC(F)(F)c1ccc(-c2cc(CN3CCN(c4ccccn4)CC3)nn2C2CCCCC2)cc1	1 µM (≈ 0.47 µg/mL)	50	50 µM	–	–	–	–	–	–
CC(C)(C)OC(=O)N1CCN(Cc2cc(-c3ccc(C(F)(F)F)cc3)n(C3CCCCC3)n2)CC1	2 µM (≈ 0.985 µg/mL)	> 50	> 100 µM	–	–	–	–	–	–
CC(C)c1ccc(-c2cc(CN3CC[Si](C)(C)CC3)nn2C2CCCCC2)cc1	0.04 µM (≈ 0.0164 µg/mL)	315	12.6 µM	97.35%	–	46 µM (≈ 18.8 µg/mL)	–	8 µM	–
Cc1c(CN2CCOCC2)nc(-c2ccc(C(C)C)cc2)n1-c1ccc(F)cc1	40 µM (≈ 15.7 µg/mL)	1.25	50.1 µM	–	–	–	–	–	–
C[Si]1(C)CCN(Cc2cc(-c3ccc(C(F)(F)F)cc3)n(-c3ccc(F)cc3)n2)CC1	0.02 µM (≈ 0.00895 µg/mL)	–	16 µM	96.65%	–	53 µM (≈ 23.7 µg/mL)	8.13	–	–
COC1CCN(Cc2cc(-c3ccc(C(C)C)cc3)n(C3CCCCC3)n2)CC1	0.6 µM (≈ 0.237 µg/mL)	21	12.6 µM	–	–	–	–	–	–
CC(C)c1ccc(-c2cc(CN3CCOCC3)nn2C2CCCOC2)cc1 (stereo unspecified)	2 µM (≈ 0.739 µg/mL)	> 50	> 100 µM	–	–	–	–	–	–

SMILES	MIC [1]	selectivity ratio [2]	CC50 at 48 h [3]	Activity (Albumin)	Papp at 3 h [4]	solubility kinetic [5]	chromatographic logD [6]	IC50 [7]	logD ([6]; buffer)
CC(C)c1ccc(-c2cc(CN3CCOCC3)nn2C(C)C)cc1	1.75 µM (≈ 0.573 µg/mL)	45	79.4 µM	–	–	–	–	–	–
COC1CCN(Cc2cc(-c3ccc(C(C)C)cc3)n(C3CCCOC3)n2)CC1 (stereo unspecified)	2.5 µM (≈ 0.994 µg/mL)	20	50 µM	–	–	–	–	–	–
Cc1ccc(-c2cc(CN3CCOCC3)nn2C2CCCCC2)cn1	50 µM (≈ 17 µg/mL)	> 2	> 100 µM	–	–	–	–	–	–
FC(F)(F)c1ccc(-c2cc(CN3CCOCC3)nn2C2CCCCC2)cc1	2.5 µM (≈ 0.984 µg/mL)	20	50 µM	–	–	–	–	–	–
Fc1ccc(-n2nc(CN3CCOCC3)cc2-c2ccc(C(F)(F)F)cc2)cc1	20 µM (≈ 8.11 µg/mL)	5	100 µM	–	–	–	–	–	–
CC(C)n1nc(CN2CCOCC2)cc1-c1ccc(C(F)(F)F)cc1	23 µM (≈ 8.13 µg/mL)	> 4	> 100 µM	–	–	–	–	–	–
COC1CCN(Cc2cc(-c3ccc(C)nc3)n(C3CCCCC3)n2)CC1	50 µM (≈ 18.4 µg/mL)	> 2	> 100 µM	–	–	–	–	–	–
CC(C)c1ccc(-c2cc(CN3CCN(C)CC3)nn2-c2ccc(F)cc2)cc1	20 µM (≈ 7.85 µg/mL)	0.6	12.6 µM	–	–	–	–	–	–
CC(C)c1ccc(-c2cc(CN3CCN(c4ccccn4)CC3)nn2C2CCCCC2)cc1	0.5 µM (≈ 0.222 µg/mL)	80	40 µM	98.41%	< 0.3 ×10⁻⁶ cm/s	15 µM (≈ 6.65 µg/mL)	–	> 50 µM	9.83
Cc1c(CN2CCOCC2)nn(-c2ccc(C(C)C)cc2)c1-c1ccc(F)cc1	50 µM (≈ 19.7 µg/mL)	> 2	> 100 µM	–	–	–	–	–	–
C[Si]1(C)CCN(Cc2cc(-c3ccc(C(F)(F)F)cc3)n(C3CCCCC3)n2)CC1	0.07 µM (≈ 0.0305 µg/mL)	180	12.6 µM	96.32%	–	69 µM (≈ 30.1 µg/mL)	8.49	2.5 µM	–
CC(C)c1ccc(-c2cc(CN3CCC(O)CC3)nn2C2CCCCC2)cc1	42 µM (≈ 16 µg/mL)	1.5	63 µM	–	–	–	–	–	–
COC1CCN(Cc2cc(C)n(C3CCCCC3)n2)CC1	50 µM (≈ 14.6 µg/mL)	> 2	> 100 µM	–	–	–	–	–	–
CC(C)c1ccc(-c2cc(CN3CCCC(O)C3)nn2-c2ccc(F)cc2)cc1 (stereo unspecified)	20 µM (≈ 7.87 µg/mL)	1.25	25.1 µM	–	–	–	–	–	–
CC(C)c1ccc(-c2cc(CN3CCN(C(=O)OC(C)(C)C)CC3)nn2-c2ccc(F)cc2)cc1	2 µM (≈ 0.957 µg/mL)	40	80 µM	–	–	–	–	–	–
FC(F)(F)c1ccc(-c2cc(CN3CCCCC3)nn2C2CCCCC2)cc1	2.5 µM (≈ 0.979 µg/mL)	20	50 µM	–	–	–	–	–	–
Fc1ccc(-n2nc(CN3CCN(c4ccccn4)CC3)cc2-c2ccc(C(F)(F)F)cc2)cc1	2 µM (≈ 0.963 µg/mL)	16	32 µM	–	–	–	–	–	–
CC(C)(C)OC(=O)N1CCN(Cc2cc(-c3ccc(C(F)(F)F)cc3)n(-c3ccc(F)cc3)n2)CC1	4 µM (≈ 2.02 µg/mL)	> 25	> 100 µM	–	–	–	–	–	–
COC1CCN(Cc2cc(-c3ccc(C(F)(F)F)cc3)n(C3CCCCC3)n2)CC1	1.2 µM (≈ 0.506 µg/mL)	26	31.6 µM	–	–	–	–	–	–
COC1CCN(Cc2nc(-c3ccc(C(C)C)cc3)n(-c3ccc(F)cc3)c2C)CC1	40 µM (≈ 16.9 µg/mL)	–	–	–	–	–	–	–	–
COC1CCN(Cc2nn(-c3ccc(C(C)C)cc3)c(-c3ccc(F)cc3)c2C)CC1	50 µM (≈ 21.1 µg/mL)	–	–	–	–	–	–	–	–
COC1CCN(Cc2cc(-c3ccc(C(C)C)cc3)n(C(C)C)n2)CC1	50 µM (≈ 17.8 µg/mL)	–	–	–	–	–	–	–	–
CC(C)c1ccc(-c2cc(CN3CCN(C(=O)OC(C)(C)C)CC3)nn2C2CCCCC2)cc1	1 µM (≈ 0.467 µg/mL)	40	40 µM	–	–	–	–	–	–

Reference: ChEMBL document CHEMBL4304832, “Novel Pyrazole-Containing Compounds Active against Mycobacterium tuberculosis” (ACS Med Chem Lett, 2019)
